Laboratory results from EP4670735A1, “PRODRUG NANOPARTICLE FOR TUMOR-TARGETED ULTRASOUND-[…] THERAPY” (Schleuning, Christian, priority 2024, dated 2025).

Key:
[1] = test system: human breast cancer (MCF-7) cells; assay: Cytotoxicity (MTT) in the dark or upon exposure to ultrasound radiation; type: cell-based; settings: 4 h incubation, then 44 h, concentrations correspond to the platinum complex
Description: (§1) 6 × 10^3 cells were seeded onto 96-well plates and allowed to adhere overnight. The cells were treated with increasing concentrations of the compound which was diluted in cell media to a total volume of 200 µL. The cells were incubated with the compound for 4 h and after this time the medium refreshed. The cells for the dark group were grown for an additional 44 h at 37 °C. The cells for the ultrasound group were exposed to ultrasound radiation (1.5 W/cm^2, 2 min) with an Intelect Mobile 2 Ultrasound Emitter (DJO Global). The cells for the ultrasound group were grown for an additional 44 h at 37 °C. After this incubation time, the culture medium was substituted with PBS buffer containing 3-(4,5-dimethylthiazol-2-yl)-2,5-diphenyltetrazolium bromide (MTT) with a final concentration of 12 µM. The cells were incubated for 2 h at 37 °C and 10 % CO2 After this time, the DPBS-MTT mixture was removed and the wells filled with 200 µL DMSO. Using a 620 nm reference wavelength, the absorption of the formazan was measured at 550 nm with an Infinite M Nano plus Microplate reader (Tecan).
(§2) In contrast, the nanoparticles induced a cytotoxic effect upon exposure to ultrasound radiation. Table 1 reflects the respective data, which are also visualized in Fig. 3. Table 1: Cytotoxicity (IC50 in µM) of oxaliplatin, NP-Pt-1 and NP-Pt-2 in the dark or upon exposure to ultrasound radiation in mouse colon carcinoma (CT-26) and human breast cancer (MCF-7) cells. The mentioned concentrations correspond to the platinum complex.

[2] = test system: mouse colon carcinoma (CT-26) cells; assay: as above; type: cell-based; settings: 4 h incubation, then 44 h, concentrations correspond to the platinum complex
Description: as §1, §2

## O=C1[O][Pt]2([NH][C@@H]3CCCC[C@H]3[NH]2)[O]C1=O [Oxaliplatin]
[1]; MCF-7, dark, 2880 min
  IC50: 24.5 ± 4.6 µM
[1]; MCF-7, ultrasound (1.5 W/cm^2, 2 min)
  IC50: 22.4 ± 4.8 µM
[2]; CT-26, dark, 2880 min
  IC50: 20.4 ± 3.1 µM
[2]; CT-26, ultrasound (1.5 W/cm^2, 2 min)
  IC50: 19.3 ± 3.4 µM
